Reference: US11208412B2 (DAEGU-GYEONGBUK MEDICAL INNOVATION FOUNDATION, priority 2017, dated 2021)
Where two headings read alike, the source gives them in different places.

How the values were obtained:
Assay in all cases: Kinase selectivity, DiscoverX scanMAX Kinase assay panel (% control)
Type in all cases: binding
[1] = molecular target: T1, kinases of the scanMAX Kinase assay panel (Homo sapiens, UniProt O00444); settings: PLK4; 1 uM
T1 construct: purchased DiscoverX Co. (contract measurement) scanMAX Kinase assay panel
T1 sequence (O00444 1-970): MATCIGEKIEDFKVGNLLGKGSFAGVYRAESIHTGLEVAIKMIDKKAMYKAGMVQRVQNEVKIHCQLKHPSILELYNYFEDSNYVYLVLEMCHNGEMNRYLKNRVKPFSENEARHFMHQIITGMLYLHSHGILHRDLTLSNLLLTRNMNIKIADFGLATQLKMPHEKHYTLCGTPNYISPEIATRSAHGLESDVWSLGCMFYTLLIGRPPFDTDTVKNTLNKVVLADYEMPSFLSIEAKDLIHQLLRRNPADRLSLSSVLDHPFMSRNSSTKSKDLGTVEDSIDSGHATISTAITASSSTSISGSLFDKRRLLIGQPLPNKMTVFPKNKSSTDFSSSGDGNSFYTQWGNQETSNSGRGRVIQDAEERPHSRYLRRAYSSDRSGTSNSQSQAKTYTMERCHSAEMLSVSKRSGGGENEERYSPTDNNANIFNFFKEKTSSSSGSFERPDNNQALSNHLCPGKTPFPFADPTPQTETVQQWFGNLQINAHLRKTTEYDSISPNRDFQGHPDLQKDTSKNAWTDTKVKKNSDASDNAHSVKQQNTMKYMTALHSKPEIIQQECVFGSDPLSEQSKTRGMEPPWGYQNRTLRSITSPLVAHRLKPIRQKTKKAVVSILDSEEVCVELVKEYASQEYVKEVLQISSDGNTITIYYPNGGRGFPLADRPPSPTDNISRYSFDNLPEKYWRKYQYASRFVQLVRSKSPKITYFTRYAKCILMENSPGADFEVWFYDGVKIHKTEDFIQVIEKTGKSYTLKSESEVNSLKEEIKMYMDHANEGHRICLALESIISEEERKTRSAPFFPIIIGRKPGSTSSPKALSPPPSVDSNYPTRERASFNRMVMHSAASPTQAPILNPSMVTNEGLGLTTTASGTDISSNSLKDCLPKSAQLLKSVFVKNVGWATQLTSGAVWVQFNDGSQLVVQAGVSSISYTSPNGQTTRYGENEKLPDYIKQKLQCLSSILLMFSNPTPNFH
Summary of the method: (§1)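 Read-out is % control, normalised so a positive-control compound sits at 0% and DMSO at 100%: (test − positive)/(negative − positive)×100. Each kinase received the compound at 1 uM in DMSO. A value below 35% counts as activity.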

[2] = molecular target: T2, kinases of the scanMAX Kinase assay panel (Homo sapiens, UniProt O15264); settings: p38-delta; 1 uM
T2 construct: purchased DiscoverX Co. (contract measurement) scanMAX Kinase assay panel
T2 sequence (O15264 1-365): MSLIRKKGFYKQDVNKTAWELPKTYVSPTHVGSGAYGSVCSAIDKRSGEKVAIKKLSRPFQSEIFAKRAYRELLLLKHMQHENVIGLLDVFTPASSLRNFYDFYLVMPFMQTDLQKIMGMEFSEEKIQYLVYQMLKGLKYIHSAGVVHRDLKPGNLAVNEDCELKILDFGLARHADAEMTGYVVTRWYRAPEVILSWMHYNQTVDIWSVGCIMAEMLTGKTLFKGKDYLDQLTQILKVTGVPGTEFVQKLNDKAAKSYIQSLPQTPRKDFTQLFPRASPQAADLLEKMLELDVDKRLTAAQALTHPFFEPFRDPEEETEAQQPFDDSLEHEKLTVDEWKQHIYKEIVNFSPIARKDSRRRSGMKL
Summary of the method: as §1

[3] = molecular target: T3, kinases of the scanMAX Kinase assay panel (Homo sapiens, UniProt O95819); settings: MAP4K4; 1 uM
T3 construct: purchased DiscoverX Co. (contract measurement) scanMAX Kinase assay panel
T3 sequence (O95819 whole entry): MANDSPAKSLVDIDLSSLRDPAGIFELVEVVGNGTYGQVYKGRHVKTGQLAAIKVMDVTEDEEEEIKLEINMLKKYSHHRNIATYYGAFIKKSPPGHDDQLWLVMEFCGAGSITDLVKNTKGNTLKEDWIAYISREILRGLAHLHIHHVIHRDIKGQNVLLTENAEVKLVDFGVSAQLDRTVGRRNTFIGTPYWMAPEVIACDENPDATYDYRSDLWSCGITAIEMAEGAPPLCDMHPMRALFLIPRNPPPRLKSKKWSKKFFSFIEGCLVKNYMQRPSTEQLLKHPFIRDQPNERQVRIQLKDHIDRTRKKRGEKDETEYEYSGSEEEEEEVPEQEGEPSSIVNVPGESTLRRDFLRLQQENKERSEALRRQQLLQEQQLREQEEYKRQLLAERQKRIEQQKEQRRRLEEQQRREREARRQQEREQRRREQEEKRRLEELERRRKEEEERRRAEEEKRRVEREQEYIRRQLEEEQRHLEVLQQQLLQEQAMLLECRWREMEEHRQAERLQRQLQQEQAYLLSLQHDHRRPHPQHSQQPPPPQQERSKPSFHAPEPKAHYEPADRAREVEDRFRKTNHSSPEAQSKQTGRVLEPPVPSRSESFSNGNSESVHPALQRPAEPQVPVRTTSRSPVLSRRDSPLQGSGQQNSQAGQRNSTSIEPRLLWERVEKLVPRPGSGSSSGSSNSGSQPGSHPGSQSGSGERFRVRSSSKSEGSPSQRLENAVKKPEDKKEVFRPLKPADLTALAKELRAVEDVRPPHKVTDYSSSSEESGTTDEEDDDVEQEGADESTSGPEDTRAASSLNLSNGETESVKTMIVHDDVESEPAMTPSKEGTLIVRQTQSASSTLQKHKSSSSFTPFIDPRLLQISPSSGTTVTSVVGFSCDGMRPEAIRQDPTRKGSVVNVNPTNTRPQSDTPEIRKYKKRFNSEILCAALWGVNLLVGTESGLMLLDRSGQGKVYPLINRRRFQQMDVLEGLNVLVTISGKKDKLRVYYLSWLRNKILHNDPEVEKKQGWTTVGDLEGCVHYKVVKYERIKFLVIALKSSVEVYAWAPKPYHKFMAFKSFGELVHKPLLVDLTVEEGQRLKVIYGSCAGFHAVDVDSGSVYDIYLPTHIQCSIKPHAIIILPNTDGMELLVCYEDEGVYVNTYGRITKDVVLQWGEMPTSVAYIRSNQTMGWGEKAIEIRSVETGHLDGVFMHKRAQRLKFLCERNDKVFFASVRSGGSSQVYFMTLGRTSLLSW
Summary of the method: as §1

[4] = molecular target: T4, kinases of the scanMAX Kinase assay panel (Homo sapiens, UniProt P04629); settings: kinase TRKA; 1 uM in DMSO
T4 construct: purchased DiscoverX Co. (contract measurement) scanMAX Kinase assay panel
Summary of the method: as §1

[5] = molecular target: T5, kinases of the scanMAX Kinase assay panel (Homo sapiens, UniProt P29317); settings: EPHA2; 1 uM
T5 construct: purchased DiscoverX Co. (contract measurement) scanMAX Kinase assay panel
Summary of the method: as §1

[6] = molecular target: T6, kinases of the scanMAX Kinase assay panel (Homo sapiens, UniProt P29597); settings: 1 uM in DMSO
T6 construct: purchased DiscoverX Co. (contract measurement) scanMAX Kinase assay panel
T6 sequence (P29597 whole entry): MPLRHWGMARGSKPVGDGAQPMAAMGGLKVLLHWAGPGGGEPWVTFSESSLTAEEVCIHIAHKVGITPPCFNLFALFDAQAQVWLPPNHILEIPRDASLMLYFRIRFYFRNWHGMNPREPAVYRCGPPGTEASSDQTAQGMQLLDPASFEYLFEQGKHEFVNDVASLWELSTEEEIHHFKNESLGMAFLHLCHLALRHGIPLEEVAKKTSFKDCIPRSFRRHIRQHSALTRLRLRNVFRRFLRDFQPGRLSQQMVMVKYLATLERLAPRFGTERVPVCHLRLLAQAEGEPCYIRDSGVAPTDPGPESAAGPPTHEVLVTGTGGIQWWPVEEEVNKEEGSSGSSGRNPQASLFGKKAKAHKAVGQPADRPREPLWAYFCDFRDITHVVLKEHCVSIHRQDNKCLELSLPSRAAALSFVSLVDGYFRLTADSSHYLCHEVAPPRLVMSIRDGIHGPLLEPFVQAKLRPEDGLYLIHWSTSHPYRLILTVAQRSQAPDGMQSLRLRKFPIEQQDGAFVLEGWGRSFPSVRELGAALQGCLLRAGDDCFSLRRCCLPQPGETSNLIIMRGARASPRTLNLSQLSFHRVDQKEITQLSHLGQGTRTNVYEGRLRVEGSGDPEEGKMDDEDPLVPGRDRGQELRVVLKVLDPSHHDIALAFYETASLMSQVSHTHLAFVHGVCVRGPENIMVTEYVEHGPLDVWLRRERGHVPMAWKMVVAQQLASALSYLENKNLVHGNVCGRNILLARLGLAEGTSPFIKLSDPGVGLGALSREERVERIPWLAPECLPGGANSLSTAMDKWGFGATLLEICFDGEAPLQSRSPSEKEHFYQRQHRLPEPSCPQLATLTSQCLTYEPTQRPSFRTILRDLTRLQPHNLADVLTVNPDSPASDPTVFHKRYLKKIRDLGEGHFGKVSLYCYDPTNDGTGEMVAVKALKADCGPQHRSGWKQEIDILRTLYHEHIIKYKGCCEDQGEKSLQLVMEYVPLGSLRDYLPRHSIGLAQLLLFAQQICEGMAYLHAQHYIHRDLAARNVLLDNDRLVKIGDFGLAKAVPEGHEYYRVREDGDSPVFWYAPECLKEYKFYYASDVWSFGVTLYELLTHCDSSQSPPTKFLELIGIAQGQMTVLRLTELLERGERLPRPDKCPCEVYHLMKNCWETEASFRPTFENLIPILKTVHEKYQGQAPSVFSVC
Summary of the method: as §1

[7] = molecular target: T7, kinases of the scanMAX Kinase assay panel (Homo sapiens, UniProt P51955); settings: NEK2; 1 uM
T7 construct: purchased DiscoverX Co. (contract measurement) scanMAX Kinase assay panel
T7 sequence (P51955 1-445): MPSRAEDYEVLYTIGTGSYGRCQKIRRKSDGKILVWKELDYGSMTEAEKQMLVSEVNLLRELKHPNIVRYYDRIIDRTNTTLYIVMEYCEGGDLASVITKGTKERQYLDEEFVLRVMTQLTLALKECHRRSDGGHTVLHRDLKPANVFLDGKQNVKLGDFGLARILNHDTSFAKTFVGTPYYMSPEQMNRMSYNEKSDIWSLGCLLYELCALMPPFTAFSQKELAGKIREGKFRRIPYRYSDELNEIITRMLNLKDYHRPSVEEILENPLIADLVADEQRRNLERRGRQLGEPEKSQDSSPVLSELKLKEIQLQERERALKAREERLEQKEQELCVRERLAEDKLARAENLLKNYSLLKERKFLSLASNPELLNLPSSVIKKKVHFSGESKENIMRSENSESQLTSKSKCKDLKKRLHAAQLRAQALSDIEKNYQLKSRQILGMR
Summary of the method: as §1

[8] = molecular target: T8, kinases of the scanMAX Kinase assay panel (Homo sapiens, UniProt Q05655); settings: PRKCD; 1 uM
T8 construct: purchased DiscoverX Co. (contract measurement) scanMAX Kinase assay panel
T8 sequence (Q05655 whole entry): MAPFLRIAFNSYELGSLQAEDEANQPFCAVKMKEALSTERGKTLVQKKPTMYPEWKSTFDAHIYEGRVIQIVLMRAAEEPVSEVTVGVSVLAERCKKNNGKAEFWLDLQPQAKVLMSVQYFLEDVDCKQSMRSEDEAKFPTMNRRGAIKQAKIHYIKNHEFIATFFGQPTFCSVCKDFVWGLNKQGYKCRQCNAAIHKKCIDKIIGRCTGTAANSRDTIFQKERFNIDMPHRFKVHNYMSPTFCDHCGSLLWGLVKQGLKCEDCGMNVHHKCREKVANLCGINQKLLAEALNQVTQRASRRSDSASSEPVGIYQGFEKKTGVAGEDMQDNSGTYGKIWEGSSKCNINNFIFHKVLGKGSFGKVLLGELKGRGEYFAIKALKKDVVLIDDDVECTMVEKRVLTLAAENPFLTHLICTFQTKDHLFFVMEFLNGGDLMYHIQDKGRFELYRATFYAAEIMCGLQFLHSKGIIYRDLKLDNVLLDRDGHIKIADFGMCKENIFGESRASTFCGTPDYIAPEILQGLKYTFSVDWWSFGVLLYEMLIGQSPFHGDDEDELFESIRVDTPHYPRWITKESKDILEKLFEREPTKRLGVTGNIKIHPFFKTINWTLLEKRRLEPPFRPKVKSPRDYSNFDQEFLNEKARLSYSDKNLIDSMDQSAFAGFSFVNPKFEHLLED
Summary of the method: as §1

[9] = molecular target: T9, kinases of the scanMAX Kinase assay panel (Homo sapiens, UniProt Q86UX6); settings: kinase YANK3; 1 uM in DMSO
T9 construct: purchased DiscoverX Co. (contract measurement) scanMAX Kinase assay panel
T9 sequence (Q86UX6 whole entry): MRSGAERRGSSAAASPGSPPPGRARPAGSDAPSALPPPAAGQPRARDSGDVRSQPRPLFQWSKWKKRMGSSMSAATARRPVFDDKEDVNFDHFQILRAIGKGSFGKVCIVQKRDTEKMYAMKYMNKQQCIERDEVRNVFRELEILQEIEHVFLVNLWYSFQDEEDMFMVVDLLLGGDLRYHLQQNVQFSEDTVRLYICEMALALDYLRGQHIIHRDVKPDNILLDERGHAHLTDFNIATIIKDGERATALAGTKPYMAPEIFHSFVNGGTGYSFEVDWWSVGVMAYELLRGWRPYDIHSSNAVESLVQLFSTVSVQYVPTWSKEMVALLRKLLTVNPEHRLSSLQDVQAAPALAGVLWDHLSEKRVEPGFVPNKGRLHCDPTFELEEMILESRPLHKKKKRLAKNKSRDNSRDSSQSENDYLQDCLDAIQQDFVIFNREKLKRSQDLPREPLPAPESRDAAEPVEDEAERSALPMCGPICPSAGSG
Summary of the method: as §1

[10] = molecular target: T10, kinases of the scanMAX Kinase assay panel (Homo sapiens, UniProt Q8WU08); settings: kinase YANK1; 1 uM in DMSO
T10 construct: purchased DiscoverX Co. (contract measurement) scanMAX Kinase assay panel
T10 sequence (Q8WU08 whole entry): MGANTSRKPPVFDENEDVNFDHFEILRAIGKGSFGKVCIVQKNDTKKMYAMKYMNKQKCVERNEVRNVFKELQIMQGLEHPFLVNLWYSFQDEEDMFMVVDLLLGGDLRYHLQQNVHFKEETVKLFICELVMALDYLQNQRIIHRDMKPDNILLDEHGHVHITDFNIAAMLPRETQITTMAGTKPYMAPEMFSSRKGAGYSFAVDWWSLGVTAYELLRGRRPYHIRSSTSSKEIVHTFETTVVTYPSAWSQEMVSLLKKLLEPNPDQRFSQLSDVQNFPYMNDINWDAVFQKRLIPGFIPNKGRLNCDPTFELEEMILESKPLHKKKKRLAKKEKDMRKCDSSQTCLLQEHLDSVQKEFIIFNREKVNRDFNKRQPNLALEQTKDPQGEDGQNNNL
Summary of the method: as §1

[11] = molecular target: T11, kinases of the scanMAX Kinase assay panel (Homo sapiens, UniProt Q9HBH9); settings: MKNK2; 1 uM
T11 construct: purchased DiscoverX Co. (contract measurement) scanMAX Kinase assay panel
T11 sequence (Q9HBH9 whole entry): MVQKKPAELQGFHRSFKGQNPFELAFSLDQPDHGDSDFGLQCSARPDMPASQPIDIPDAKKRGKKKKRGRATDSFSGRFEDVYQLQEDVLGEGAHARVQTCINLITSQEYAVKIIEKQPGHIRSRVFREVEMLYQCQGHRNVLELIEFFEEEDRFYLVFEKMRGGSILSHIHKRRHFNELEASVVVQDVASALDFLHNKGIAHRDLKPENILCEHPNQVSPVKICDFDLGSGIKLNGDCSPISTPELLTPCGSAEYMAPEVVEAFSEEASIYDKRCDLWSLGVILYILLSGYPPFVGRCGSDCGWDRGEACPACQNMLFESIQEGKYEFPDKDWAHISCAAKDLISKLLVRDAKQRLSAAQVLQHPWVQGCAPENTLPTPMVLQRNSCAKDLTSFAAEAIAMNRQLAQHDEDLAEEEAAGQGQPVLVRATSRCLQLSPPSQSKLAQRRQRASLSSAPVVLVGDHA
Summary of the method: as §1

[12] = kinase TYK2(JH1domain-catalytic), read-out: % control, TYK2(JH1domain-catalytic)
[13] = kinase TYK2(JH2domain-pseudokinase), read-out: % control, TYK2(JH2domain-pseudokinase)

Structure (SMILES)	remaining binding at 1 µM [1] [%]	remaining binding at 1 µM [2] [%]	remaining binding at 1 µM [3] [%]	remaining binding at 1 µM [4] [%]	remaining binding at 1 µM [5] [%]	remaining binding at 1 µM [6, 12] [%]	remaining binding at 1 µM [6, 13] [%]	remaining binding at 1 µM [7] [%]	remaining binding at 1 µM [8] [%]	remaining binding at 1 µM [9] [%]	remaining binding at 1 µM [10] [%]	remaining binding at 1 µM [11] [%]
CCNc1nc(Nc2ccc(C(=O)N3CCC(N4CCOCC4)CC3)cc2OC)nc2[nH]cc(C(F)(F)F)c12 [Example 104, (4-((4-(ethylamino)-5-(trifluoromethyl)-7H-pyrrolo[2,3-d]pyrimidine-2-yl)amino)-3-methoxyphenyl)(4-morpholinopiperidine-1-yl)methanone]	1.7	95	100	98	100	100	100	74	100	65	82	39
CC1(Nc2nc(Nc3cnn([C@H]4CCN(C5COC5)C[C@@H]4F)c3Cl)nc3[nH]cc(C#N)c23)CC1 [Example 52, 2-((5-chloro-1-((3S,4S)-3-fluoro-1-(oxetane-3-yl)piperidine-4-yl)-1H-pyrazole-4-yl)amino)((1-methylcyclopropyl)amino)-7H-pyrrolo[2,3-d]pyrimidine-5-carbonitrile]	0	76	18	0.5	79	0	7.2	70	81	100	88	5.5
CNc1nc(Nc2ccc(C(=O)N3CCOCC3)cc2OC)nc2[nH]cc(C#N)c12 [Example 1, 2-((2-methoxy-4-(morpholine-4-carbonyl)phenyl)amino)-4-(methylamino)-7H-pyrrolo[2,3-d]pyrimidine-5-carbonitrile]	17	100	82	67	97	80	66	97	100	100	76	31
